Among the data in PubChem BioAssay AID179 (DTP/NCI, 2004) are EC50, IC50 and outcome values, retold here.

This assay has as its system CEM cells HIV-1 protection, formazan growth assay. Description: NCI AIDS Antiviral Assay. As to conditions: for IC50: measured here: growth of uninfected CEM cells. A digest of the protocol:
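Steps: treat uninfected and HIV-1-infected human CEM cells at five drug levels; quantify growth by soluble formazan; retest any compound reaching 50% protection; classify actives from the retest.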

Active and inactive are the calls of the source.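 The calls were made as follows: active = compounds giving half or more protection of infected cells from virus-caused growth loss, again on retest; inactive = the rest.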 Where a SMILES comes first, the peptide text is derived from it. The star is where a group is joined. Cbz = O=C(OCc1ccccc1)*; OBn = c1ccc(CO*)cc1

Usually EC50 stands for the concentration at which the effect is half-maximal. Broadly, the IC50 is the concentration that inhibits the measured activity by half. For `O=C1NC(=O)C(C(=O)C(=O)Nc2cc(Cl)ccc2Cl)C(=O)N1`, the EC50 is more than 380 µM and the half-inhibitory concentration (IC50) came out at 302 µM. The like results for `CCCCCCCCCCCCS(=O)(=O)O.[Pb]` were, in that order, more than 200 µM and more than 200 µM. The like results for `CS1(=O)=CC(=O)CC(c2ccccc2)C1` (stereo unspecified) were, in that order, more than 1120 µM and more than 1120 µM.

`CC(=O)OC12c3ccccc3-c3ccccc3C1C1C(=O)OC(=O)C12` (stereo unspecified): the EC50 is more than 282 µM and the half-maximal inhibitory concentration (IC50) is more than 282 µM. Turning to `C[n+]1cccc(O)c1`, the outcome was inactive. On to `C=CCc1cc2c(C)cc(=O)oc2c(C)c1OC(C)=O`, for which the EC50 is more than 19.1 µM and the IC50 was more than 19.1 µM.

Regarding `COC(=O)CNC(=O)C(C)NC(=O)C(CC(=O)OCc1ccccc1)NC(=O)OCc1ccccc1` (stereo not drawn) (Cbz-Asp(OBn)-Ala-Gly-OMe; configuration not given here), the EC50 was more than 200 µM and the IC50 is 107 µM. For the compound `O=C1NS(=O)(=O)NC1(c1ccccc1)c1ccccc1`, the outcome was inactive. As to `COc1ccc(C[C@H](N)C(=O)N2C[C@H](CO)C[C@H](n3ccc(=O)[nH]c3=O)C2)cc1`, the EC50 is more than 617 µM and the IC50 is more than 617 µM.

On to `CSc1nnc(SC)c2[nH]cnc12`, for which the EC50 is more than 200 µM and the half-maximal inhibitory concentration (IC50) was more than 200 µM.

Regarding `Cc1c(/C=N/N(C)C)oc2c1cc(O)c1ncccc12`, the EC50 is more than 37.2 µM and the IC50 worked out at 2.51 µM. The like results for `Cc1cc(C)c(OC(=O)Nc2cccc3ccccc23)c(-c2ccccc2)c1` were, in that order, more than 200 µM and 19.5 µM.

For `Cc1cc2c(cc1C)[n+]([O-])c(NCCCN(C)C)c(C#N)[n+]2[O-]`, the EC50 was more than 200 µM and the IC50 turned out to be 72.4 µM. In the case of `CC(=O)c1sc(-c2nc(C)c(C(=O)/C=C\c3ccc(/C=C\C(=O)c4sc(-c5nc(C)c(C(C)=O)s5)nc4C)cc3)s2)nc1C`, the EC50 is more than 28.2 µM and the IC50 is more than 28.2 µM. Turning to `COc1ccc(OCC(=O)O)c2c1CCC(C(C)C)C2=O` (stereo unspecified), the result was inactive.

For the compound `O=C(CCC(=O)Nc1ccc(Cl)c(Cl)c1)CC(=O)c1ccc(F)cc1`, the EC50 is more than 67.6 µM and the IC50 is more than 67.6 µM. Turning to `Cc1ncc(CCl)c2c1OC(C)(C)OC2`, the EC50 is more than 676 µM and the IC50 came out at 7.94 µM. The like results for `[O-][n+]1onc2c1/C(=N/O)CCC2` were, in that order, more than 200 µM and more than 200 µM. The like results for `CC(=O)c1ccc2c(c1)NC(=O)CC(C)N2` (stereo unspecified) were, in that order, more than 200 µM and more than 200 µM. Turning to `CC(=O)NC(CC(C)C(C)=O)C(=O)O` (stereo unspecified), the EC50 is more than 200 µM and the concentration for half-maximal inhibition (IC50) was more than 200 µM.

`COC(OC)c1cccc2c1C(=O)CCC1(O)c3ccccc3C1C2` (stereo unspecified): the EC50 was more than 155 µM and the IC50 came out at 138 µM. The like results for `O=C(Nc1ccccc1)n1cc(-c2ccccn2)c(N2CCOCC2)n1` were, in that order, more than 195 µM and 53.7 µM. The like results for `CCOC(=O)c1nc2ccc(C(F)(F)F)cc2[nH]c1=O` were, in that order, more than 200 µM and more than 200 µM.

In the case of `O=C(OCC1CCCN2CCCCC12)c1cccnc1` (stereo unspecified), the EC50 was more than 200 µM and the IC50 was more than 200 µM. As for `O=c1c(-c2cccc3ccccc23)c(-c2cccc3ccccc23)c1=O`, the result was inactive. Regarding `COC(=O)c1cc2c3ccccc3n(C(C)=O)c2cn1`, the outcome was inactive. For the compound `C=CC(C)(C)C(=C)C(=O)Nc1ccccc1I`, the EC50 was more than 200 µM and the IC50 was more than 200 µM.

As to `NNC(=S)N/N=C(\CCCC(=O)NCCc1ccccc1)CC(=O)c1ccccc1`, the EC50 is more than 219 µM and the IC50 was more than 219 µM. In the case of `CN1CC[C@@H](O)C(CNC23CC4CC(CC(C4)C2)C3)C1` (stereo partly specified), the EC50 is more than 200 µM and the half-maximal inhibitory concentration (IC50) was more than 200 µM. For the compound `CC(=O)[C@H]1[C@@H](OCc2ccccc2)O[N+]([O-])=C(C)[C@@H]1c1ccccc1`, the EC50 is more than 123 µM and the IC50 is 89.1 µM. For `CC(=O)C(C)(CCC(=O)O)CCC(=O)O`, the EC50 was more than 955 µM and the concentration for half-maximal inhibition (IC50) was more than 955 µM. `Cn1c(=N)c(C#N)c2n(c1=S)CCCCCCC2`: the EC50 was more than 200 µM and the IC50 was found to be 97.7 µM. On to `O=[N+]([O-])/C=C/c1c(Cl)cccc1Cl`, for which the outcome was inactive. Turning to `C=CCC1(Sc2ccccn2)Sc2ccc3ccccc3c2-c2c(ccc3ccccc23)S1`, the EC50 is more than 100 µM and the IC50 is more than 100 µM.

`Oc1ccccc1C=NCc1ccco1`: the outcome was inactive.

Consider `CC(=O)Oc1c(OC(C)C)c(C)c(O[Si](C(C)C)(C(C)C)C(C)C)c2[nH]c3ccccc3c12`, for which the EC50 is more than 100 µM and the IC50 came to 13.5 µM. Regarding `CNc1ccc(Cl)cc1S(=O)(=O)c1ccccc1Br`, the EC50 is more than 200 µM and the 50% inhibitory concentration (IC50) is 3.89 µM. The like results for `NCCCNCCCCNCCCNCc1c2ccccc2c(CNCCCNCCCCNCCCN)c2ccccc12` were, in that order, more than 1820 µM and 3.8 µM. The corresponding values for `CNC1=C2NC(=O)/C(C)=C\C=C\C(C)C(O)C(C)C(O)C(C)C(OC(C)=O)C(C)C(OC)/C=C/OC3(C)Oc4c(C)c(O)c(c(c4C3=O)C1=O)C2=O` (stereo unspecified) are more than 200 µM and 3.8 µM. The corresponding values for `CC(=O)NC(CCC(=O)c1ccc(Cl)cc1)(C(=O)O)C(=O)O` are more than 200 µM and more than 200 µM. Consider `Nc1ccc(C(c2ccccc2)(c2ccccc2)c2ccccc2)cc1`, for which the outcome was inactive. On to `Oc1cc(O)c(Oc2cccc(O)c2O)c(O)c1`, for which the EC50 was more than 1000 µM and the half-inhibitory concentration (IC50) was determined as 38.9 µM.

Turning to `Cn1c(=O)c2nc3n(c2n(C)c1=O)C(=O)C(C(=O)O)N=N3` (stereo unspecified), the EC50 was more than 200 µM and the IC50 was more than 200 µM. As to `COc1nc2ccc(CNc3ccc(C(=O)O)cc3)cc2nc1OC`, the EC50 is more than 200 µM and the half-maximal inhibitory concentration (IC50) is more than 200 µM. As to `O=C(N/C(=C\c1ccccc1O)c1nc2ccccc2[nH]1)c1ccccc1`, the EC50 is more than 51.3 µM and the concentration for half-maximal inhibition (IC50) was more than 51.3 µM. With `O=C1/C(=N\O)C2CCC1C2` (stereo unspecified), the EC50 was more than 363 µM and the IC50 is more than 363 µM.

For the compound `COC1/C=C/OC2(C)Oc3c(C)c(O)c4c(O)c(c(/C=N/N=C(\N)N[N+](=O)[O-])c(O)c4c3C2=O)NC(=O)C(C)=C/C=C/C(C)C(O)C(C)C(O)C(C)C(OC(C)=O)C1C` (stereo unspecified), the result was inactive.

As to `S=C1CC(=S)NC(=S)N1`, the EC50 is more than 513 µM and the IC50 is more than 513 µM. Consider `COc1ccc(C2=CC3CCC2C3)cc1` (stereo unspecified), for which the outcome was inactive. `O=c1c2ccccc2nc2[nH]ncn12`: the EC50 was more than 200 µM and the half-maximal inhibitory concentration (IC50) was 117 µM. Consider `O=[As](O)(O)c1ccccc1F`, for which the concentration giving a half-maximal response (EC50) is more than 200 µM and the IC50 worked out at 141 µM. The like results for `COC(=O)C1N=CSCC1(C)O` (stereo unspecified) were, in that order, more than 1320 µM and 186 µM. The corresponding values for `COC(=O)c1cc2c(c(C(=O)OC)c1O)C(=O)C=CC2=O` are more than 25.1 µM and 6.61 µM.

Turning to `Cc1ccc2c(c1)sc1nnc(C)n12`, the result was inactive. In the case of `O=C(NC(=O)c1ccccc1)Nc1ccccc1`, the EC50 was more than 14.1 µM and the half-inhibitory concentration (IC50) was more than 14.1 µM. In the case of `CCOC(=O)C(=Cc1cccc(Br)c1)C(=O)OCC`, the EC50 is more than 759 µM and the 50% inhibitory concentration (IC50) was 468 µM.
